From US20080274947A1, “Hydroxy-Substituted Diphenylazetidinones for the Treatment of Hyperlipidemia” (SANOFI-AVENTIS DEUTSCHLAND GMBH, priority 2005, published 2008)

Tested on: not listed separately
Assay: Liver exposure: substance level in liver homogenate by LC-MS/MS
Assay type: in vivo
Settings: rat, oral, male Wistar rats, 10 mg/kg of body weight, liver dissected after 2 h, read-out: Cmax values in the liver (L)
Experimental: The liver exposure of the compounds of the invention compared with the corresponding compounds without a hydroxyl function in the 2″ position was investigated in vivo in male Wistar rats. A rat anesthetized with ketamine/midazolam (ketamine 80 mg/kg i.p.+midazolam 5 mg/kg i.p.) undergoes laparotomy in the Linea alba, and then the product is administered intraduodenally. During this it is attempted to prevent direct reflux of the product into the stomach. The animals remain under anesthesia throughout the experiment. At the end of the experiment, after 2 h, the liver is dissected out for determination of the substance. The substance levels in the liver homogenates are determined by LC-MS/MS. For this purpose, initially the proteins are precipitated by adding acetonitrile in the presence of an internal standard. Part of the supernatant is mixed with a suitable buffer, and an aliquot of the mixture is injected. The measurement is evaluated via the peak areas of analyte and internal standard.
Cmax values in the liver (L) after oral administration of 10 mg/kg of body weight

Cmax at 2 h | Structure (SMILES)
300 ng/mL | N.O=C1[C@H](CC[C@H](O)c2ccc(F)cc2)[C@@H](c2ccc(OCCCOS(=O)(=O)O)cc2O)N1c1ccc(F)cc1
80 ng/mL | O=C1[C@H](CC[C@H](O)c2ccc(F)cc2)[C@@H](c2ccc(OCc3ccc(C[N+]45CCN(CC4)CC5)cc3)cc2O)N1c1ccc(F)cc1.[Br-]
24300 ng/mL | N.O=C1[C@H](CC[C@H](O)c2ccc(F)cc2)[C@@H](c2ccc(OCCCOS(=O)(=O)O)cc2)N1c1ccc(F)cc1 [reference compound]
200 ng/mL | O=C1[C@H](CC[C@H](O)c2ccc(F)cc2)[C@@H](c2ccc(OCc3ccc(C[N+]45CCN(CC4)CC5)cc3)cc2)N1c1ccc(F)cc1.[Br-] [reference compound]

Tested on: serum LDL cholesterol
Assay: Hamster model: serum LDL cholesterol reduction on a cholesterol-supplemented diet
Assay type: in vivo, Syrian hamsters
Settings: Mesocricetus auratus, po, once a day by gavage on 12 consecutive days, LDL cholesterol reduction vs placebo-treated controls
Experimental: Syrian hamsters (in groups of n=5-9) receive a standard diet (ssniff, Soest Germany) supplemented with 0.1% cholesterol.
The test substances are made up in 0.5%/(methylcellulose (Sigma)/5% Solutol (BASF, Ludwigshafen) or another suitable vehicle, and at least three dosages are administered once a day by gavage on 12 consecutive days.
On day 12, the animals are exsanguinated from the aorta under deep anesthesia. The serum is analyzed for total cholesterol, LDL-cholesterol, HDL-cholesterol and triglycerides using standard kits from Roche in accordance with the guidelines of the German Society for Clinical Chemistry.
The ED50 values for LDL cholesterol reduction compared with placebo-treated control animals were calculated using a standard logistic model for the dose-effect plot.

Structure (SMILES) | ED50
O=C(OCc1ccc([C@@H]2[C@@H](CC[C@H](O)c3ccc(F)cc3)C(=O)N2c2ccc(F)cc2)c(O)c1)N1CCN(S(=O)(=O)O)CC1 [Example A, Ammonium 4-(4-{1-(4-fluorophenyl)-3-[3-(4-fluorophenyl)-3-hydroxypropyl]-4-oxoazetidin-2-yl}-3-hydroxybenzyloxycarbonyl)piperazine-1-sulfamate] | 0.2 mg/kg
O=C(Nc1ccc([C@@H]2[C@@H](CC[C@H](O)c3ccc(F)cc3)C(=O)N2c2ccc(F)cc2)c(O)c1)N1CCN(S(=O)(=O)O)CC1 [Example E, Ammonium 4-(4-{1-(4-fluorophenyl)-3-[3-(4-fluorophenyl)-3-hydroxypropyl]-4-oxoazetidin-2-yl}-3-hydroxyphenylcarbamoyl)piperazine-1-sulfamate] | 0.1 mg/kg
O=C(Oc1ccc([C@@H]2[C@@H](CC[C@H](O)c3ccc(F)cc3)C(=O)N2c2ccc(F)cc2)c(O)c1)N1CCN(S(=O)(=O)O)CC1 [I, Ammonium 4-(4-{1-(4-Fluorophenyl)-3-[3-(4-fluorophenyl)-3-hydroxypropyl]-4-oxoazetidin-2-yl}-3-hydroxyphenoxycarbonyl)piperazine-1-sulfamate] | < 0.1 mg/kg

Tested on: uptake of 14C-cholesterol in the liver (cholesterol absorption)
Assay: Cholesterol absorption test: uptake of 14C-cholesterol in the liver after an oral test meal
Assay type: in vivo, NMRI mice
Settings: mouse, dose which halves (50%) the uptake of 14C-cholesterol in the liver relative to control group
Experimental: Influence on Cholesterol Absorption+^3H-Taurocholic Acid Excretion on the Basis of the Fecal Excretion in Mice, Rats or Hamsters
NMRI mice, Wistar rats, or golden Syrian hamsters (in groups of n=4-6) are kept with a standard diet (Altromin, Lage (Lippe)) in metabolism cages. The animals are fasted from the afternoon before administration of the radioactive tracer (^14C-cholesterol) and adapted to wire grids.
In addition, the animals are labeled with ^3H-TCA (taurocholic acid) s.c. 24 hours before the oral administration of the test meal (^14C-cholesterol in Intralipid® 20, Pharmacia-Upjohn) (e.g. 1 μCi/mouse to 5 μCi/rat).
Cholesterol absorption test: 0.25 ml/mouse Intralipid® 20 (Pharmacia-Upjohn) (spiking with 0.25 μCi ^14C-cholesterol in 0.1 mg of cholesterol) is administered orally by gavage.
Test substances are made up separately in 0.5%/(methylcellulose (Sigma)/5% Solutol (BASF, Ludwigshafen) or a suitable vehicle.
The volume for administration of the test substance is 0.5 ml/mouse. The test substance is administered orally immediately before the test meal (Intralipid with ^14C-cholesterol label) (cholesterol absorption test).
Feces are collected for 24 h: the fecal elimination of ^14C-cholesterol and ^3H taurocholic acid (TCA) is determined after 24 h.
The livers are removed, homogenized and combusted in aliquots in an oximate (model 307, Packard) to determine the amount of ^14C-cholesterol taken up/absorbed.
The amount of ^14C-cholesterol taken up in the liver is evaluated in relation to a control group (vehicle-treated) as a function of the dose of the substance administered. The ED50 values are interpolated from a dose-effect plot as the dose which halves (50%) the uptake of ^14C-cholesterol in the liver relative to a control group.

Structure (SMILES) | ED50 (liver)
C[n+]1ccn(CCCCOc2ccc([C@@H]3C(CC[C@H](O)c4ccc(F)cc4)C(=O)N3c3ccc(F)cc3)c(O)c2)c1.[I-] (stereo in doubt) [Example M, 3-[4-(4-{1-(4-Fluorophenyl)-3-[3-(4-fluorophenyl)-3-hydroxypropyl]-4-oxoazetidin-2-yl}-3-hydroxyphenoxy)butyl]-1-methyl-3H-imidazol-1-ium iodide] | <0.1 mg/mouse
O=C(OCc1ccc([C@@H]2[C@@H](CC[C@H](O)c3ccc(F)cc3)C(=O)N2c2ccc(F)cc2)c(O)c1)N1CCN(S(=O)(=O)O)CC1 [Example A, Ammonium 4-(4-{1-(4-fluorophenyl)-3-[3-(4-fluorophenyl)-3-hydroxypropyl]-4-oxoazetidin-2-yl}-3-hydroxybenzyloxycarbonyl)piperazine-1-sulfamate] | 0.01 mg/mouse
O=C1C(CC[C@H](O)c2ccc(F)cc2)[C@@H](c2ccc(CN3CCN(S(=O)(=O)O)CC3)cc2O)N1c1ccc(F)cc1 (stereo partly shown) [Example B, Ammonium 4-(4-{1-(4-Fluorophenyl)-3-[3-(4-fluorophenyl)-3-hydroxypropyl]-4-oxoazetidin-2-yl}-3-hydroxybenzyl)piperazine-1-sulfamate] | <0.1 mg/mouse
C[N+]1(C)CCN(C(=O)OCc2ccc([C@@H]3[C@@H](CC[C@H](O)c4ccc(F)cc4)C(=O)N3c3ccc(F)cc3)c(O)c2)CC1.[I-] [Example C, 4-(4-{1-(4-Fluorophenyl)-3-[3-(4-fluorophenyl)-3-hydroxypropyl]-4-oxoazetidin-2-yl}-3-hydroxybenzyloxycarbonyl)-1,1-dimethylpiperazin-1-ium iodide] | 0.1 mg/mouse
O=C(Nc1ccc([C@@H]2[C@@H](CC[C@H](O)c3ccc(F)cc3)C(=O)N2c2ccc(F)cc2)c(O)c1)N1CCN(S(=O)(=O)O)CC1 [Example E, Ammonium 4-(4-{1-(4-fluorophenyl)-3-[3-(4-fluorophenyl)-3-hydroxypropyl]-4-oxoazetidin-2-yl}-3-hydroxyphenylcarbamoyl)piperazine-1-sulfamate] | <0.01 mg/mouse
O=C1[C@H](CC[C@H](O)c2ccc(F)cc2)[C@@H](c2ccc(NS(=O)(=O)O)cc2O)N1c1ccc(F)cc1 [Example F, Ammonium (4-[1-(4-fluorophenyl)-3-[3-(4-fluorophenyl)-3-hydroxypropyl]-4-oxoazetidin-2-yl]-3-hydroxyphenyl)sulfamate] | 0.3 mg/mouse
O=C1[C@H](CC[C@H](O)c2ccc(F)cc2)[C@@H](c2ccc(OCCCOS(=O)(=O)O)cc2O)N1c1ccc(F)cc1 [Example K] | <0.01 mg/mouse
O=C1C(CC[C@H](O)c2ccc(F)cc2)[C@@H](c2ccc(OCc3ccc(C[N+]45CCN(CC4)CC5)cc3)cc2O)N1c1ccc(F)cc1.[Br-] (stereo partly shown) [Example N, 1-[4-(4-{1-(4-Fluorophenyl)-3-[3-(4-fluorophenyl)-3-hydroxypropyl]-4-oxoazetidin-2-yl}-3-hydroxyphenoxymethyl)benzyl]-4-aza-1-azoniabicyclo[2.2.2]octane bromide] | 0.01 mg/mouse
COc1ccc([C@@H]2[C@@H](CC[C@H](O)c3ccc(F)cc3)C(=O)N2c2ccc(CNC(=O)CCCCCCCCCCNC(=O)[C@H](O)[C@@H](O)[C@H](O)[C@H](O)CO)cc2)c(O)c1 [Example O, 11-(2,3,4,5,6-Pentahydroxyhexanoylamino)undecanoic acid 4-[3-[3-(4-fluorophenyl)-3-hydroxypropyl]-2-(2-hydroxy-4-methoxyphenyl)-4-oxoazetidin-1-yl]benzylamide] | <0.01 mg/mouse
COc1ccc([C@@H]2[C@@H](CC[C@H](O)c3ccc(F)cc3)C(=O)N2c2ccc(CNC(=O)N3CCN(C(=O)C[N+]45CCN(CC4)CC5)CC3)cc2)c(O)c1.[Cl-] [Example P, 1-[2-(4-{4-[3-[3-(4-Fluorophenyl)-3-hydroxypropyl]-2-(2-hydroxy-4-methoxyphenyl)-4-oxoazetidin-1-yl]benzylcarbamoyl}piperazin-1-yl)-2-oxoethyl]-4-aza-1-azoniabicyclo[2.2.2]octane chloride] | 0.3 mg/mouse
O=C(C[N+]12CCN(CC1)CC2)Nc1ccc([C@@H]2[C@@H](CC[C@H](O)c3ccc(F)cc3)C(=O)N2c2ccc(F)cc2)c(O)c1.[I-] [H, 1-[(4-{1-(4-Fluorophenyl)-3-[3-(4-fluorophenyl)-3-hydroxypropyl]-4-oxoazetidin-2-yl}-3-hydroxyphenylcarbamoyl)methyl]-4-aza-1-azoniabicyclo[2.2.2]octane iodide] | 0.01 mg/mouse
O=C(Oc1ccc([C@@H]2[C@@H](CC[C@H](O)c3ccc(F)cc3)C(=O)N2c2ccc(F)cc2)c(O)c1)N1CCN(S(=O)(=O)O)CC1 [I, Ammonium 4-(4-{1-(4-Fluorophenyl)-3-[3-(4-fluorophenyl)-3-hydroxypropyl]-4-oxoazetidin-2-yl}-3-hydroxyphenoxycarbonyl)piperazine-1-sulfamate] | 0.01 mg/mouse
